The values below come from US7799535B1 (priority 1997, dated 2010).

Experiment [1] concerns the target T1, Hsp104 (Saccharomyces cerevisiae, UniProt P31539). It counts as binding, yeast.
The target of a further experiment is 35S-PrPC (Mesocricetus auratus, UniProt P04273). It counts as biochemical, hamster.
A further experiment addresses Sup35 (Saccharomyces cerevisiae, UniProt P05453). Put plainly: Circular dichroism spectral shifts of mixtures with Sup35. Format: binding, yeast. The settings on record: LSB1; 1 hr, 1 mM ATP, 37° C. The protocol: Reactions were incubated for 1 hr with 1 mM ATP at 37° C., and transferred to a 0.1 mm path-length cuvette. Spectra were recorded at 25° C. in a Jasco 715 spectropolarimeter (bandwidth 1.0 nm, response time 16 sec, speed 20 nm/min, step resolution 0.2 nm, accumulations 4).

The target of the next experiment is rPrPβ (Mesocricetus auratus, UniProt P04273). It counts as binding, hamster. The following applies: LSB2; each at 0.5 mg/ml; 37° C. for 1 hr.
Sequence of rPrPβ (P04273 90-231 limits assumed): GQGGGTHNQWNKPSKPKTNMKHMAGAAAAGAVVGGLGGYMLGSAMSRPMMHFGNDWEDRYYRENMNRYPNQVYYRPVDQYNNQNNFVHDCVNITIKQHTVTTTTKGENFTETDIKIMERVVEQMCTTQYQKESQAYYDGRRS
Experiment [2] concerns the target T1, Hsp104. Format: biochemical, yeast.
Where [3] appears, read: reactions seeded with untreated PrPSc.
The mark [4] stands for this setting: reactions seeded with partially denatured PrPSc.

Read-outs that look alike come from different tables or passages of the source.

Sequence of 35S-PrPC (P04273 23-231 limits assumed): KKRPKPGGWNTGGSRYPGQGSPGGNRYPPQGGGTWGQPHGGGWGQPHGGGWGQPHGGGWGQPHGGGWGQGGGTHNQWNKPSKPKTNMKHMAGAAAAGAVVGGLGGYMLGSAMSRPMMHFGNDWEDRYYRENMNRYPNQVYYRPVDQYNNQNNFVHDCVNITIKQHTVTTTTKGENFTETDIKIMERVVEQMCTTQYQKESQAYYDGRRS
T1 sequence (P31539 whole entry, looked up): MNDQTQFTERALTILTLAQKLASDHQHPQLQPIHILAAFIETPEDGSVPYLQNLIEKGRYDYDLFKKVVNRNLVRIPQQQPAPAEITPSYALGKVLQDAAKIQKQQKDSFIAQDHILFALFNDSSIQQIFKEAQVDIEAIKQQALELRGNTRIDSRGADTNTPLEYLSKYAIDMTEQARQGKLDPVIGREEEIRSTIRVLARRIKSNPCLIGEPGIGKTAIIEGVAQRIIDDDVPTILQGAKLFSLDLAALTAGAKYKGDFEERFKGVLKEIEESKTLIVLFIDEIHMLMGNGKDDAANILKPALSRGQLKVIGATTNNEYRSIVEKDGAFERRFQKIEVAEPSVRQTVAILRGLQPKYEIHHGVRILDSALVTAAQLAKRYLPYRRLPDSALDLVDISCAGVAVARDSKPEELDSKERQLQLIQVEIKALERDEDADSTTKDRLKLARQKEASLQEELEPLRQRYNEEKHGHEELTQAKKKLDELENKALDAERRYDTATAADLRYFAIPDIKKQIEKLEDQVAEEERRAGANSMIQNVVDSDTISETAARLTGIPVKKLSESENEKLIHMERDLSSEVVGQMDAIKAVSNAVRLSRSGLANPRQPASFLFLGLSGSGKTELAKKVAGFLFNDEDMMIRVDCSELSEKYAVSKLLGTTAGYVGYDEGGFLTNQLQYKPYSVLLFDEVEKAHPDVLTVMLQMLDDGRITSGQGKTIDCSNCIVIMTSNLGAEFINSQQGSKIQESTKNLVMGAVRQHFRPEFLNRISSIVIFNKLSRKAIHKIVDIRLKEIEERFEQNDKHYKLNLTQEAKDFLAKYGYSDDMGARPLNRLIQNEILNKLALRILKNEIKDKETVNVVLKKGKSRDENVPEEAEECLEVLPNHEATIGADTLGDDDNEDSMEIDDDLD
Sequence of Sup35 (P05453 whole entry): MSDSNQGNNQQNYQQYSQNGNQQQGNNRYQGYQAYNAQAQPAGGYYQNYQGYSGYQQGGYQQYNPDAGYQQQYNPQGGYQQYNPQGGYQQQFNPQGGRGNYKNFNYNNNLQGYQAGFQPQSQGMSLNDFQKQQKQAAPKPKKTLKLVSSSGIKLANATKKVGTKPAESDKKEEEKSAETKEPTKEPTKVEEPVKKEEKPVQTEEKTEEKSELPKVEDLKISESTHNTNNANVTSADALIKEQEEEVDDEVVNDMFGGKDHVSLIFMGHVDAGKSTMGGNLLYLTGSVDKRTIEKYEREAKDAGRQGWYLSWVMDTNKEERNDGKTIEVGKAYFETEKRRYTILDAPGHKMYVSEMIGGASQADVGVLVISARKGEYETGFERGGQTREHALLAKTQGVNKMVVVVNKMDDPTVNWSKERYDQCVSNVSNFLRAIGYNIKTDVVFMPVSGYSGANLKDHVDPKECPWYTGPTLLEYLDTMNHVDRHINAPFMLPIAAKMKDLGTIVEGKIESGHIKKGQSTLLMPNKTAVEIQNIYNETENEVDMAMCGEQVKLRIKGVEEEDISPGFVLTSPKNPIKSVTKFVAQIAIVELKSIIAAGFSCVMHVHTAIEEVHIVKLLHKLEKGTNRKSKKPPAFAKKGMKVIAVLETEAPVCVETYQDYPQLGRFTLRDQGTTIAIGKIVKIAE

As to `Nc1ncnc2c1ncn2[C@@H]1O[C@H](COP(=O)(O)OP(=O)(O)OP(=O)(O)O)[C@@H](O)[C@H]1O` [ATP], the “rate of change in CD spectrum with Sup35 and Hsp104” value at Hsp104 [1] is on record as “markedly increased the rate”.
`C[S+](C)[O-]` [DMSO, dimethyl sulfoxide]: on 35S-PrPC (partially denatured PrPSc, higher levels (up to 30%)), the effect on conversion entry is on record as “virtually eliminated conversion”. Besides, the stimulation of conversion at 35S-PrPC (partially denatured PrPSc, intermediate levels (1-3%)) is recorded as 2-3 fold. Also, the “effect of chemical chaperones on 35S-PrPC conversion” value (“effect of chemical chaperones” below) at 35S-PrPC (setting [3]) and on 35S-PrPC (reactions without PrPSc) was “None of the compounds tested affected” in each case.
Consider `OCC(O)CO` [glycerol], for which the “effect of chemical chaperones” value at 35S-PrPC (setting [4]) is given as “no effect”; at 35S-PrPC (setting [3]) it was “None of the compounds tested affected”; on 35S-PrPC (reactions without PrPSc), “None of the compounds tested affected”.
For the compound `OC[C@H]1O[C@@](CO)(O[C@H]2O[C@H](CO)[C@@H](O)[C@H](O)[C@H]2O)[C@@H](O)[C@@H]1O` [sucrose], the “effect of chemical chaperones” value is “inhibited conversion” on 35S-PrPC (setting [4]), “None of the compounds tested affected” at 35S-PrPC (setting [3]) and “None of the compounds tested affected” at 35S-PrPC (reactions without PrPSc).
With `OC[C@H]1O[C@H](O[C@H]2O[C@H](CO)[C@@H](O)[C@H](O)[C@H]2O)[C@H](O)[C@@H](O)[C@@H]1O` [trehalose], the “effect of chemical chaperones” value on 35S-PrPC (setting [4]) is “inhibited conversion”; on 35S-PrPC (setting [3]), “None of the compounds tested affected”; on 35S-PrPC (reactions without PrPSc), “None of the compounds tested affected”.
Take α-2 macroglobulin: the “CD spectrum of mixture with Hsp104 compared with predicted spectrum” value on Hsp104 [1] was “observed spectra matched the predicted spectra”. Moreover, the “CD spectrum of mixture with Sup35 compared with predicted spectrum” value on Sup35 was “observed spectra matched the predicted spectra”. Also, the “CD spectrum of mixture with rPrPβ compared with predicted spectrum” value on rPrPβ was “much smaller”.
α-lactalbumin: the “CD spectrum of mixture with Hsp104 compared with predicted spectrum” value on Hsp104 [1] was “observed spectra matched the predicted spectra”. Moreover, at Sup35, the “CD spectrum of mixture with Sup35 compared with predicted spectrum” value is on record as “observed spectra matched the predicted spectra”. For the same compound, the “CD spectrum of mixture with rPrPβ compared with predicted spectrum” value at rPrPβ was “much smaller”.
As to “β-amyloid 1-40: a less amyloidogenic derivative of β-amyloid”, the “effect on the ATPase activity of Hsp104 (in words)” value with Hsp104 [2] is “Less inhibition”.
On the same count and under the same terms, next, “β-amyloid 1-42: amyloidogenic peptide, fragment found in neural plaques associated with Alzheimer's disease”: “inhibited”.
In the case of β-galactosidase, the “CD spectrum of mixture with rPrPβ compared with predicted spectrum” value at rPrPβ was “much smaller”.
